Measurements published in patent US20220401429A1, “USE OF ANAMORELIN TO TREAT CANCER-RELATED FATIGUE” (Helsinn Healthcare SA, priority 2021, published 2022).
Like-named read-outs stand apart in the source and are kept apart here.

How the values were obtained:
[1] = test system: patients with advanced cancer; experiment: Adverse events, Example 1 study; type: in vivo, human; conditions: 100 mg oral daily, 6 weeks with optional 6 week extension
Protocol: (§1) In this single arm study, 38 patients were intended for treatment with anamorelin for 6 weeks with an optional extension phase of 6 more weeks based on tolerability and safety and patient willingness. Patients received anamorelin 100 mg tablets and physical activity for 6 weeks for the intervention phase. Patients took 1 tablet orally while fasting (at least 1 hour before a meal).

[2] = Weight and body composition (InBody), Example 1 study; type: in vivo, human; conditions: Day 43, 28 evaluable patients, 100 mg oral daily + physical activity + nutritional counseling
Protocol: as §1
(§2) Exploratory objectives of the study were to explore the effects of anamorelin and standardized physical activity and nutritional counseling on muscle function (as measured by the 30 second chair stand test, 6 minute walk test, day time activity (accelerometer), body composition (as measured by INBODY), and Resting Energy Expenditure (measured by indirect calorimetry)
Body Composition: All patients were assessed for lean body mass, skeletal muscle mass, extracellular water/total body water body, fat mass, body fat mass, and whole body phase angle evaluation (using the InBody body composition scale) (Dalal, Hui et al. 2012, Del Fabbro, Parsons et al. 2012, Yennurajalingam, Willey et al. 2012, Hui, Bansal et al. 2014). Resting energy expenditure was assessed at baseline and Day 43±3 days, and at the end of 6 weeks of the extension phase.

[3] = test system: patients with advanced cancer; experiment: FAACT Anorexia/Cachexia subscale, Example 1 study; type: in vivo, human; conditions: change from baseline, 100 mg oral daily + physical activity + nutritional counseling
Protocol: as §1
(§3) Secondary objectives of the study were to examine the effects of anamorelin and standardized physical activity and nutritional counseling on Health-related quality of life and patient reported outcomes as measured by The Multidimensional Fatigue Symptom Inventory-Short Form[MFSI-SF], PROMIS-Fatigue, Hospital Anxiety Depression Scale (HADS), Edmonton Symptom Assessment Scale (ESAS), Functional Assessment of Cancer Therapy (FACT-G), and its Functional Assessment of Anorexia/Cachexia Treatment (FAACT) subscale in these patients.
The FAACT-Anorexia/Cachexia subscale is a 12-item symptom-specific subscale designed to measure patients' additional concerns about their anorexia/cachexia during the previous 7 days. The FAACT has internal consistency and a reliability coefficient (Cronbach's alpha) of 0.88 for the 12 components (Ribaudo, Cella et al. 2000). Patients rate the intensity of anorexia/cachexia and its related symptoms on a 0-4 scale like that used in the FACIT-F.

[4] = test system: cachectic patients with non-small cell lung cancer; conditions: cited from earlier work
[5] = test system: patients with advanced cancer; experiment: FACT-G, Example 1 study; type: in vivo, human; conditions: change from baseline, 100 mg oral daily + physical activity + nutritional counseling
Protocol: as §1, §3
The FACT-G is a 27-item compilation of general questions divided into four primary domains: Physical Well-Being, Social/Family Well-Being, Emotional Well-Being, and Functional Well-Being. It is appropriate for use in patients with any form of cancer, and extensions of it have been used and validated in other chronic illness conditions as well (Cella, Tulsky et al. 1993, Webster, Cella et al. 2003). The FACT-G is the first 2 pages of FACIT-F.

[6] = test system: patients with advanced cancer; experiment: Daytime activity by accelerometer (actigraphy), Example 1 study; type: in vivo, human; conditions: 100 mg oral daily + physical activity + nutritional counseling
Protocol: as §1, §2
Measures: We used the 30 second chair stand test, six-minute walk test, and an accelerometer. A self-report exercise questionnaire, the Godin Leisure-Time physical activity questionnaire, was used to complement the objective measures. IM Systems-three dimensional accelerometers (“Biotrainer-Pro”) was used to objectively measure physical activity.

[7] = test system: patients with advanced cancer; experiment: Multidimensional Fatigue Symptom Inventory-Short Form (MFSI-SF), Example 1 study; type: in vivo, human; conditions: change from baseline, 100 mg oral daily + physical activity + nutritional counseling
Protocol: as §1, §3
MFSI-SF consists of 30 items designed to assess the multidimensional nature of fatigue(Stein, Jacobsen et al. 2004). Ratings are summed to obtain scores for 5 subscales (general fatigue, physical fatigue, emotional fatigue, mental fatigue, and vigor).

[8] = ROMANA 1 and ROMANA 2, both studies

CN(C)N(C)C(=O)[C@@]1(Cc2ccccc2)CCCN(C(=O)[C@@H](Cc2c[nH]c3ccccc23)NC(=O)C(C)(C)N)C1 [anamorelin]
Severe (≥grade 3) adverse events related to the study drug [1]: No severe (≥grade 3) adverse events
Lean Body Mass improvement from baseline, mean (SD) [2]: 1.54 (±1.85)
Weight improvement from baseline, mean (SD) [2]: 1.81 (±2.63) kg
FAACT-A/CS Total, change, Mean (±SD) ([3]; Day 15 (N = 28)): 1.70 (±4.89),
FAACT-A/CS Total, change, Mean (±SD) ([3]; Day 29 (N = 28)): 4.53 (±5.54),
FAACT-A/CS Total, change, Mean (±SD) ([3]; Day 86 (N = 8)): −5.86 (±3.72),
Effect size for improvement in CRF ([4]; ROMANA 1): 0.16
Effect on fatigue using the FACIT-F [4, 8]: unable to detect a significant effect
Effect on strength measured by handgrip strength [4, 8]: unable to detect a significant effect
Effect size for improvement in CRF ([4]; ROMANA 2): 0.008
Treat fatigue and improve handgrip strength, pooled post-hoc analysis ([4]; higher BMIs): ineffective
Treat fatigue and improve handgrip strength, pooled post-hoc analysis ([4]; patients with BMI less than 20 kg/m^2): effective
FACT-G Total, change, Mean (±SD) ([5]; Day 15 (N = 28)): 0.59 (±9.17),
FACT-G Total, change, Mean (±SD) ([5]; Day 29 (N = 28)): 1.31 (±8.97),
FACT-G Total, change, Mean (±SD) ([5]; Day 43 (N = 28)): −1.10 (±10.71),
FACT-G Total, change, Mean (±SD) ([5]; Day 86 (N = 8)): 4.54 (±7.65),
Improvement in mean daytime activity (actigraphy activity measure) [6]: no significant improvement
MFSI-SF Emotional fatigue, change, Mean (±SD) ([7]; Day 15 (N = 28)): −0.43 (±2.20),
MFSI-SF General fatigue, change, Mean (±SD) ([7]; Day 15 (N = 28)): −2.25 (±4.53),
MFSI-SF Mental fatigue, change, Mean (±SD) ([7]; Day 15 (N = 28)): −0.93 (±2.57),
MFSI-SF Physical fatigue, change, Mean (±SD) ([7]; Day 15 (N = 28)): −0.71 (±3.69),
MFSI-SF Total, change, Mean (±SD) ([7]; Day 15 (N = 28)): −4.79 (±9.59),
MFSI-SF Vigor, change, Mean (±SD) ([7]; Day 15 (N = 28)): 0.46 (±2.89),
MFSI-SF Emotional fatigue, change, Mean (±SD) ([7]; Day 29 (N = 28)): 0.14 (±3.15),
MFSI-SF General fatigue, change, Mean (±SD) ([7]; Day 29 (N = 28)): −4.18 (±5.74),
MFSI-SF Mental fatigue, change, Mean (±SD) ([7]; Day 29 (N = 28)): −1.39 (±2.90),
MFSI-SF Physical fatigue, change, Mean (±SD) ([7]; Day 29 (N = 28)): −0.50 (±4.43),
MFSI-SF Total, change, Mean (±SD) ([7]; Day 29 (N = 28)): −6.32 (±12.41),
MFSI-SF Vigor, change, Mean (±SD) ([7]; Day 29 (N = 28)): 0.39 (±3.46),
MFSI-SF Emotional fatigue, change, Mean (±SD) ([7]; Day 43 (N = 28)): 1.04 (±4.36),
MFSI-SF Mental fatigue, change, Mean (±SD) ([7]; Day 43 (N = 28)): −0.36 (±4.12),
MFSI-SF Physical fatigue, change, Mean (±SD) ([7]; Day 43 (N = 28)): −0.39 (±5.03),
MFSI-SF Total, change, Mean (±SD) ([7]; Day 43 (N = 28)): −2.07 (±17.59),
MFSI-SF Vigor, change, Mean (±SD) ([7]; Day 43 (N = 28)): −1.11 (±5.28),
MFSI-SF Emotional fatigue, change, Mean (±SD) ([7]; Day 86 (N = 8)): −0.88 (±2.42),
MFSI-SF General fatigue, change, Mean (±SD) ([7]; Day 86 (N = 8)): −4.00 (±6.28),
MFSI-SF Mental fatigue, change, Mean (±SD) ([7]; Day 86 (N = 8)): −2.25 (±3.62),
MFSI-SF Physical fatigue, change, Mean (±SD) ([7]; Day 86 (N = 8)): −1.88 (±3.98),
MFSI-SF Total, change, Mean (±SD) ([7]; Day 86 (N = 8)): −11.75 (±14.22),
MFSI-SF Vigor, change, Mean (±SD) ([7]; Day 86 (N = 8)): 2.75 (±3.01),
